What was measured:
[1] = biological target: T1, SMARCA2-HiBiT HeLa cells (protein which is expressed from the SMARCA2 gene) (Homo sapiens, UniProt P51531); assay: SMARCA2 degradation assay (HiBiT-fusion HeLa cell line, 24 h, luminescence); format: cell-based
T1 construct: protein which is expressed from the SMARCA2 and SMARCA4 genes; host or cells: HeLa (SMARCA2-HiBiT engineered line)
Summary of the method: (§1)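 SMARCA2- or SMARCA4-HiBiT HeLa cells seeded overnight at 37° C, then given compound as a 10-point dilution (typically 10 μM to 300 pM) for 24 h at 37° C. Protein level read by HiBiT lytic detection luminescence; DC50 from dose-response curves; degradation also scored at 1 μM.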

[2] = biological target: T2, SMARCA4-HiBiT HeLa cells (protein which is expressed from the SMARCA4 gene) (Homo sapiens, UniProt P51532); assay: SMARCA4 degradation assay (HiBiT-fusion HeLa cell line, 24 h, luminescence); format: cell-based
T2 construct: protein which is expressed from the SMARCA2 and SMARCA4 genes; host or cells: HeLa (SMARCA4-HiBiT engineered line)
T2 sequence (P51532 whole entry, the tested form may be a part): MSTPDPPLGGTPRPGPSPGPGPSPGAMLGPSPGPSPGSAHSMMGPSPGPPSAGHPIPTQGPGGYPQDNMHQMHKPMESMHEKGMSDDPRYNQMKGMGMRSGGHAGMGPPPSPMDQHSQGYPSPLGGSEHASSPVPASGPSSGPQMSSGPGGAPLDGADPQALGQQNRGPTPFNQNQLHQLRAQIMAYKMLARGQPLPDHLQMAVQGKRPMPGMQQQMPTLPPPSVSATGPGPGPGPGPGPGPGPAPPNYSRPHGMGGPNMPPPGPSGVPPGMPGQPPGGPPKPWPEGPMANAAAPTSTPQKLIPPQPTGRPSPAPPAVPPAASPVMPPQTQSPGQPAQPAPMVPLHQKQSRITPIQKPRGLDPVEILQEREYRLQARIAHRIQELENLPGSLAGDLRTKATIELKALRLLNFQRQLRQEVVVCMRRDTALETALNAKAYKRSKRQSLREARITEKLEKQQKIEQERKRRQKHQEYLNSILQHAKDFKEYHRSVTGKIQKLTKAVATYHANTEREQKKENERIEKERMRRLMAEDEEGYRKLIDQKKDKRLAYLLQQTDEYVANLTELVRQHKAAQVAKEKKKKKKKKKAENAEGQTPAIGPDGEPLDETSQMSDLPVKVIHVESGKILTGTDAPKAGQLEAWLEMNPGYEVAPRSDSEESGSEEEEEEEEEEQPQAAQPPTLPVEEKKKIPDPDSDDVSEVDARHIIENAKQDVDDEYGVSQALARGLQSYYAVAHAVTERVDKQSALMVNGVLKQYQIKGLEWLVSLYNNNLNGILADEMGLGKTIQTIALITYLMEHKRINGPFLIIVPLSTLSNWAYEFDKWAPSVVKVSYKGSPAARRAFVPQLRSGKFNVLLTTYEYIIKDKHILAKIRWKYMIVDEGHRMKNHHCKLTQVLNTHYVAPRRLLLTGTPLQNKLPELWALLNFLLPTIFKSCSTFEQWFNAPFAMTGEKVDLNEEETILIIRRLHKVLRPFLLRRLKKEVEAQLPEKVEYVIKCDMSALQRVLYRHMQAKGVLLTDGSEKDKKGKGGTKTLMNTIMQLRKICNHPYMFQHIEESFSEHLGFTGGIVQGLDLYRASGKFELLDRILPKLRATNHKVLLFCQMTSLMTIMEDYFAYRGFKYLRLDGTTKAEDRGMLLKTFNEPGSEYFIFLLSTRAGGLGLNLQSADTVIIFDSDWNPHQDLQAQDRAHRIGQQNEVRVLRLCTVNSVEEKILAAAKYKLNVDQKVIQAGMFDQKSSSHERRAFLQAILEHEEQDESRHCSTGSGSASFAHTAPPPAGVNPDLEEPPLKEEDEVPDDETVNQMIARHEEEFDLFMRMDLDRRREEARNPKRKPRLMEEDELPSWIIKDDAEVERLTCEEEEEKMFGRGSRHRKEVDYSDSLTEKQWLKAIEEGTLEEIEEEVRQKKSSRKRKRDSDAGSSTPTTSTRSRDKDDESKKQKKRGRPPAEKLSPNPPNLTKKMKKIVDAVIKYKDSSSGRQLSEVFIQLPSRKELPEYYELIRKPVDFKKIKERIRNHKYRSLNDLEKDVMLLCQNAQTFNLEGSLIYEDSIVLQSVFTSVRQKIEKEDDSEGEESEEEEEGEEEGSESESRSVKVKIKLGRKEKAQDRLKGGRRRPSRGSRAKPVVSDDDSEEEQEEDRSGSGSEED
Summary of the method: as §1

T1 sequence (P51531 whole entry, the tested form may be a part): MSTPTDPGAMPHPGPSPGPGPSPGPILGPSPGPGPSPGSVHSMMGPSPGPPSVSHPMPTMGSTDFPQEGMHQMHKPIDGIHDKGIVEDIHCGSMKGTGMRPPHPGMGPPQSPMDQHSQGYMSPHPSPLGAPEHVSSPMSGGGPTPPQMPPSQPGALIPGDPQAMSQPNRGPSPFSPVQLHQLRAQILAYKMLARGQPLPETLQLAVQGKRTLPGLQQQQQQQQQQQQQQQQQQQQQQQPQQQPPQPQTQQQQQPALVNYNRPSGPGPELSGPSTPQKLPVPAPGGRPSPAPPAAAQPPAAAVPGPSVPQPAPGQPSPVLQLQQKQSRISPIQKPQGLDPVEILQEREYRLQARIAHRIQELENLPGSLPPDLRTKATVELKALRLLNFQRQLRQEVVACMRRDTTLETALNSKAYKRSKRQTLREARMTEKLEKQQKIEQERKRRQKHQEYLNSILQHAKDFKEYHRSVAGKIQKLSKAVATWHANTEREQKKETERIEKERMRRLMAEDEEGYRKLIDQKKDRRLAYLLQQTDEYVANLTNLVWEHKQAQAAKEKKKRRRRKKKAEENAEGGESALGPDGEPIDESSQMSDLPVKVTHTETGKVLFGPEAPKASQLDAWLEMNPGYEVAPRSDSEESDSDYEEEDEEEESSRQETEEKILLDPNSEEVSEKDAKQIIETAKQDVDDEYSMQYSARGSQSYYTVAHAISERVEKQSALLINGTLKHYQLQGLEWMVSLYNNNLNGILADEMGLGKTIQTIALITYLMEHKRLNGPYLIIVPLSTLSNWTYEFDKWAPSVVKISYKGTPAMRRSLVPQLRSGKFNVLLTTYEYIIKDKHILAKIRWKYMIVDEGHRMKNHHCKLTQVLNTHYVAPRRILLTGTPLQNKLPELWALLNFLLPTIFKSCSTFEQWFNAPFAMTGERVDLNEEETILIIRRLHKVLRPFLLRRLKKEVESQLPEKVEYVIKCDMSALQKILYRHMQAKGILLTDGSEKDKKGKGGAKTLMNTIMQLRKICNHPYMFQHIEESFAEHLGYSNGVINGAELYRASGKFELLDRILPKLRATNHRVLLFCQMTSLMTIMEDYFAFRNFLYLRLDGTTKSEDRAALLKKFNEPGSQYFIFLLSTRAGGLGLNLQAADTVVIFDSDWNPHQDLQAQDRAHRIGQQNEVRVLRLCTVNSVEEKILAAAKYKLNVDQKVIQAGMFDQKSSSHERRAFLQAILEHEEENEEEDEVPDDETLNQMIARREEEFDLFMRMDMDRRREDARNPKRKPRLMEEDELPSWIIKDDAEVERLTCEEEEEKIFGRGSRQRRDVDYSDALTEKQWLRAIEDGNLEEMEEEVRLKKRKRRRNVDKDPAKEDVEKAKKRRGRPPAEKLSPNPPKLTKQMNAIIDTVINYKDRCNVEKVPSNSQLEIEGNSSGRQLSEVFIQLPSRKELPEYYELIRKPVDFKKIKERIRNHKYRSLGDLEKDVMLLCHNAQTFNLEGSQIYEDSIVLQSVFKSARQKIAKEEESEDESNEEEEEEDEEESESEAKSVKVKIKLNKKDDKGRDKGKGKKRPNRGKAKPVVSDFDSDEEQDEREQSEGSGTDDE

Row | SMILES | DC50 [1] [nM] | SMARCA2 % Degradation @ 1 μM ([1]; @ 1 μM) | DC50 [2] [nM] | inhibition at 1 µM ([2]; @ 1 μM) [%] | SMARCA2 % Degradation @ 1 μM ([1]; 1 μM) | inhibition at 1 µM ([2]; 1 μM) [%]
1 | C[C@H]1CN(c2ccnc(C#CCn3cncn3)n2)CCN1c1cc(-c2ccccc2O)nnc1N [Compound P-330, 0-{5-[(S)-2-methyl-4-{2-[3-(1H-1,2,4-triazol-1-yl)-1-propynyl]-4-pyrimidinyl}-1-piperazinyl]-6-amino-3-pyridazinyl} phenol] | 50 to 500 | ++ (++=30-70%) | 50 to 500 | < 30 | – | –
2 | CO[C@@H]1CCN(CC#Cc2nccc(N3CCN(c4cc(-c5ccccc5O)nnc4N)CC[C@H]3C)n2)C1 [Compound P-242, o-{5-[(R)-4-(2-{3-[(R)-3-methoxy-1-pyrrolidinyl]-1-propynyl}-4-pyrimidinyl)-5-methyl-1,4-diazepan-1-yl]-6-amino-3-pyridazinyl} phenol] | < 50 | ++ (++=30-70%) | < 50 | 30 to 70 | – | –
3 | Nc1nnc(-c2ccccc2O)cc1N1CCCN(c2ccnc(/C=C/CNC(=O)c3cnc4ccccc4n3)n2)CC1 [Compound P-110, (E)-N-(3-(4-(4-(3-amino-6-(2-hydroxyphenyl)pyridazin-4-yl)-1,4-diazepan-1-yl)pyrimidin-2-yl)allyl)quinoxaline-2-carboxamide] | 50 to 500 | +++ (+++=>70%) | 50 to 500 | > 70 | – | –
4 | CNCC#Cc1nccc(N2CCN(c3cc(-c4ccccc4O)nnc3N)CC2)n1 [Compound P-294, 0-[6-amino-5-(4-{2-[3-(methylamino)-1-propynyl]-4-pyrimidinyl}-1-piperazinyl)-3-pyridazinyl]phenol] | < 50 | ++ (++=30-70%) | < 50 | < 30 | – | –
5 | Nc1nnc(-c2ccccc2O)cc1N1CC2CCC(C1)N2c1ccnc(C#CCNC(=O)c2cccnc2)n1 [Compound P-241, N-[3-(4-{3-[3-amino-6-(o-hydroxyphenyl)-4-pyridazinyl]-3,8-diazabicyclo[3.2.1]oct-8-yl}-2-pyrimidinyl)-2-propynyl]nicotinamide] | 50 to 500 | ++ (++=30-70%) | 50 to 500 | 30 to 70 | – | –

Results, then the molecule that gave them:

Row | DC50 [1] [nM] | SMARCA2 % Degradation @ 1 μM ([1]; @ 1 μM) | DC50 [2] [nM] | inhibition at 1 µM ([2]; @ 1 μM) [%] | SMARCA2 % Degradation @ 1 μM ([1]; 1 μM) | inhibition at 1 µM ([2]; 1 μM) [%] | SMILES
6 | 50 to 500 | ++ (++=30-70%) | 50 to 500 | 30 to 70 | – | – | Cc1nn2ccn(CC#Cc3nccc(N4C[C@H]5C[C@@H]4CN5c4cc(-c5ccccc5O)nnc4N)n3)c(=O)c2c1C [Compound P-286, 5-[3-(4-{(1R,4R)-5-[3-amino-6-(0-hydroxyphenyl)-4-pyridazinyl]-2,5-diazabicyclo[2.2.1]hept-2-y1}-2-pyrimidinyl)-2-propynyl]-2,3-dimethyl-1,5,7a-triaza-4(5H)-indenone]
7 | 50 to 500 | ++ (++=30-70%) | 50 to 500 | 30 to 70 | – | – | Cc1ncsc1C(=O)NCC#Cc1nccc(N2CCN(c3cc(-c4ccccc4O)nnc3N)CC2)n1 [Compound P-62, N-(3-(4-(4-(3-amino-6-(2-hydroxyphenyl)pyridazin-4-yl)piperazin-1-yl)pyrimidin-2-yl)prop-2-yn-1-yl)-4-methylthiazole-5-carboxamide]
8 | < 50 | – | < 50 | – | ++ (++=30-70%) | 30 to 70 | C[C@@H]1CCN(c2cc(-c3ccccc3O)nnc2N)CCN1c1ccnc(C#CCN2CCCCC2)c1 [Compound P-425, 0-(5-{(R)-5-methyl-4-[2-(3-piperidino-1-propynyl)-4-pyridyl]-1,4-diazepan-1-yl}-6-amino-3-pyridazinyl)phenol]
9 | < 50 | +++ (+++=>70%) | 50 to 500 | 30 to 70 | – | – | Nc1nnc(-c2ccccc2O)cc1N1CCCN(c2ccnc(C#CCOc3ncco3)n2)CC1 [Compound P-128, 2-(6-amino-5-(4-(2-(3-(oxazol-2-yloxy)prop-1-yn-1-yl)pyrimidin-4-yl)-1,4-diazepan-1-yl)pyridazin-3-yl)phenol]

— patent US20260265238A1, “COMPOUNDS AND PHARMACEUTICAL COMPOSITIONS THAT DEGRADE SWI/SNF-RELATED MATRIX-ASSOCIATED ACTIN-DEPENDENT REGULATOR OF CHROMATIN SUBFAMILY A” (Plexium, Inc., priority 2023, published 2026)
